Test results published in patent US20210317071A1, “PH-RESPONSIVE LIPIDS” (University of KwaZulu-Natal, priority 2016, published 2021).
Converted amounts (≈) assume the structure as drawn. Like-named read-outs stand apart in the source and are kept apart here.

Key:
shaved rat skin = format: in vitro ADME, Wistar rats
Text: All the experiments performed using animals were approved by Animal Research Ethics committee of the University of KwaZulu-Natal. In vivo study, the protocol was approved by Animal Research Ethics committee of the University of KwaZulu-Natal. The protocol approval numbers for in vivo skin infection model and transdermal permeation studies were AREC/104/015PD and AREC/054/14/Animal respectively. BALB/c mice and Wistar rats were used for in vivo skin infection model and transdermal permeation study respectively. Animals used in the study were procured from Biomedical Resource Unit of University of KwaZulu-Natal, Westville, Durban, South Africa.
All the intermediate, ester derivatives (MSAPE, MOAPE, MLAPE, MLLAPE, DSAPE, DOAPE, DLAPE, DLLAPE, TSAPE, TOAPE, TLAPE and TLLAPE) were evaluated as potential CPEs for transdermal drug delivery using tenofovir (TNF) as a model drug. The experiments were performed on shaved rat skin using Franz diffusion cells. TNF gels were prepared using hydroxypropyl methyl cellulose, milli-Q water and 1% w/w of compounds of formula 1. The permeability of TNF in the absence of enhancers was performed as a control. […] TNF was able to permeate the skin without any permeation enhancer with a steady state flux value 040.91±04.93 μg cm^−2 h^−1 (Table 6).

[1] = In-vitro VCM release from liposomes as a function of pH; format: physicochemical
Method: In-vitro drug release of VCM from the pH-responsive liposomes of the invention is illustrated in FIG. 6. At all-time intervals, VCM release at acidic pH (6.5) was higher than at physiological pH of 7.4. […] For further confirmation, the mean dissolution time (MDT 90%) for 90% of drug release was calculated from in-vitro release data. […] The MDT value is inversely proportional to the release rate, i.e. lower the MDT higher the release rate and vice versa. […] The higher drug release rate at the acidic environment from liposomes can be attributed to the alteration in the lipid bilayer orientation and permeability caused by conformational changes at the head group and hydrophobic tails of the PH-responsive lipid at low pH.

[2] = test system: Methicillin-resistant Staphylococcus aureus (MRSA); assay: In-vitro antibacterial activity, MIC by broth dilution; format: cell-based
Method: (§1) The minimum inhibitory concentration (MIC) values for VCM loaded liposomes were determined against Staphylococcus aureus (SA) and Methicillin-resistant Staphylococcus aureus (MRSA) using broth dilution method (Materials Science and Engineering: C, Volume 61, 2016, Pages 616-630). The stock bacterial cultures were grown in Mueller-Hinton Broth (MHB) 24 h before the test at 37° C.
(§2) Bacterial suspensions were prepared equal to 1.5×10^8 CFU ml^−1 as half mcFarland. Serial dilutions of VCM loaded liposomal formulations were prepared in MHB broth then added to the bacterial culture, mixed properly and incubated at 37° C. for 24 hours. […] The study continued for four days to determine the sustained release activity of encapsulated VCM. Experiments were performed in triplicate and drug-free liposomes, bare VCM solution and VCM loaded liposomes without Ph-responsive lipid were used as controls.

[3] = test system: Staphylococcus aureus (SA); assay: as above; format: cell-based; details: S. aureus
Method: as §1, §2

[4] = both pH values, study over four days
[5] = pH 6.5, DAY - I (24 h), listed as bare VCM
[6] = pH 7.4, DAY - I (24 h), listed as bare VCM

| SMILES | Cumulative amount of TNF permeated (shaved rat skin; Wistar, rat, 6 h, 1 % w/w) | ER (enhancement ratio) (shaved rat skin; Wistar, rat, 6 h, 1 % w/w) | Permeability (P × 10^−2) of TNF (shaved rat skin; Wistar, rat, 6 h, 1 % w/w) | also measured |
| --- | --- | --- | --- | --- |
| CCCCC/C=C\C/C=C\CCCCCCCC(=O)OCC(COC(=O)CCCCCCC/C=C\C/C=C\CCCCC)NCCC(=O)OC(C)(C)C [DLAPE, 2-((3-(tert-butoxy)-3-oxopropyl)amino)propane-1,3-diyl (9Z,9′Z,12Z,12′Z)-bis(octadeca-9,12-dienoate)] | 1074.62 ± 61.12 μg cm^−2 | 3.95 | 0.809 ± 0.05 | – |
| CCCCCCCC/C=C\CCCCCCCC(=O)OCCNCCC(=O)OC(C)(C)C [MOAPE, 2-((3-(tert-butoxy)-3-oxopropyl)amino)ethyl oleate] | 1594.06 ± 198.92 μg cm^−2 | 5.58 | 1.142 ± 0.16 | – |
| CCCCCCCCCCCCCCCCCC(=O)OCC(COC(=O)CCCCCCCCCCCCCCCCC)NCCC(=O)OC(C)(C)C [DSAPE, 2-((3-(tert-butoxy)-3-oxopropyl)amino)propane-1,3-diyl distearate] | 336.1 ± 25.67 μg cm^−2 | 1.40 | 0.286 ± 0.02 | – |
| C[C@H](Cn1cnc2c(N)ncnc21)OCP(=O)(O)O [TNF, tenofovir, reference compound] | – | – | – | Cumulative amount of TNF permeated (shaved rat skin): 253.10±23.84 μg cm^−2 |
| CN[C@H](CC(C)C)C(=O)N[C@H]1C(=O)N[C@@H](CC(N)=O)C(=O)N[C@H]2C(=O)N[C@H]3C(=O)N[C@H](C(=O)N[C@H](C(=O)O)c4cc(O)cc(O)c4-c4cc3ccc4O)[C@H](O)c3ccc(c(Cl)c3)Oc3cc2cc(c3O[C@@H]2O[C@H](CO)[C@@H](O)[C@H](O)[C@H]2O[C@H]2C[C@](C)(N)[C@H](O)[C@H](C)O2)Oc2ccc(cc2Cl)[C@H]1O [Bare VCM, Vancomycin] | – | – | – | MDT90% Mean dissolution time calculated for 90% of VCM release ([1]; pH 5.5): 6.064 h; MDT90% Mean dissolution time calculated for 90% of VCM release ([1]; pH 6.5): 4.173 h; MDT90% Mean dissolution time calculated for 90% of VCM release ([1]; pH 7.4): 2.690 h; time up to which antibacterial activity was exhibited [2, 4]: ≤ 24 h; MIC ([2]; pH 6.5, DAY - I (24 h)): 15.62 µg/mL (≈ 10.8 µM); MIC [2, 5]: 0.98 µg/mL (≈ 0.676 µM); MIC ([2]; pH 7.4, DAY - I (24 h)): 7.81 µg/mL (≈ 5.39 µM); MIC [2, 6]: 0.98 µg/mL (≈ 0.676 µM); time up to which antibacterial activity was exhibited [3, 4]: ≤ 24 h; MIC ([3]; pH 6.5, DAY - I (24 h)): 7.81 µg/mL (≈ 5.39 µM); MIC [3, 5]: 1.95 µg/mL (≈ 1.35 µM); MIC ([3]; pH 7.4, DAY - I (24 h)): 3.91 µg/mL (≈ 2.7 µM); MIC [3, 6]: 8.79 µg/mL (≈ 6.07 µM) |
| CCCCC/C=C\C/C=C\CCCCCCCC(=O)OCCNCCC(=O)OC(C)(C)C [MLAPE, 2-((3-(tert-butoxy)-3-oxopropyl)amino)ethyl (9Z,12Z)-octadeca-9,12-dienoate] | 574.97 ± 74.09 μg cm^−2 | 2.25 | 0.460 ± 0.06 | – |
| CCCCCCCC/C=C/CCCCCCCC(=O)OCC(COC(=O)CCCCCCC/C=C/CCCCCCCC)(COC(=O)CCCCCCC/C=C/CCCCCCCC)NCCC(=O)OC(C)(C)C [TOAPE, 2-((3-(tert-butoxy)-3-oxopropyl)amino)-2-((((Z)-octadec-9-enoyl)oxy)methyl)propane-1,3-diyl(9Z,9′Z)-bis(octadec-9-enoate)] | 342.3 ± 26.94 μg cm^−2 | 1.50 | 0.306 ± 0.02 | – |
| CCCCCCCCCCCCCCCCCC(=O)OCC(COC(=O)CCCCCCCCCCCCCCCCC)(COC(=O)CCCCCCCCCCCCCCCCC)NCCC(=O)OC(C)(C)C [TSAPE, 2-((3-(tert-butoxy)-3-oxopropyl)amino)-2-((stearoyloxy)methyl) propane-1,3-diyl distearate] | 531.70 ± 23.87 μg cm^−2 | 2.09 | 0.428 ± 0.02 | – |
| CCCCCCCC/C=C\CCCCCCCC(=O)OCC(COC(=O)CCCCCCC/C=C\CCCCCCCC)NCCC(=O)OC(C)(C)C [DOAPE, 2-((3-(tert-butoxy)-3-oxopropyl)amino)propane-1,3-diyl dioleate] | 424.95 ± 59.84 μg cm^−2 | 1.71 | 0.350 ± 0.05 | – |
| CCCCCCCCCCCCCCCCCC(=O)OCCNCCC(=O)OC(C)(C)C [MSAPE, 2-((3-(tert-butoxy)-3-oxopropyl)amino)ethyl stearate] | 407.12 ± 66.51 μg cm^−2 | 1.55 | 0.317 ± 0.06 | – |
| CC/C=C\C/C=C\C/C=C\CCCCCCCC(=O)OCCNCCC(=O)OC(C)(C)C [MLLAPE, 2-((3-(tert-butoxy)-3-oxopropyl)amino)ethyl (9Z,12Z,15Z)-octadeca-9,12,15-trienoate] | 945.88 ± 44.93 μg cm^−2 | 3.70 | 0.758 ± 0.04 | – |
| CC/C=C\C/C=C\C/C=C\CCCCCCCC(=O)OCC(COC(=O)CCCCCCC/C=C\C/C=C\C/C=C\CC)NCCC(=O)OC(C)(C)C [DLLAPE, 2-((3-(tert-butoxy)-3-oxopropyl)amino)propane-1,3-diyl (9Z,9′Z,12Z,12′Z,15Z,15′Z)-bis(octadeca-9,12,15-trienoate)] | 400.37 ± 18.92 μg cm^−2 | 1.65 | 0.337 ± 0.01 | – |
